# Test results: patent US9961898B2, “Method for controlling plant disease” (SUMITOMO CHEMICAL COMPANY, LIMITED, priority 2008, dated 2018)
# What was measured:
# Format in all cases: in vivo
# [1] = tested on: Pythium ultimum; test: Seed treatment, emergence of cotton under field conditions; conditions: for Ratio of sound non-transgenic seeds: non-transgenic cotton seeds; for Ratio of sound transgenic seeds: transgenic cotton seeds (Bacillus thuringiensis endotoxins, glyphosate tolerant)
# Procedure: (§1) Ethaboxam, formulated in a flowable concentrate for seed treatment use, was added to water so that the total slurry applied to a specified amount of seed would deliver a designated concentration. The prepared slurry was applied to non-transgenic corn seeds and transgenic corn seeds having both glyphosate tolerance and rootworm resistance. […] Emergence (%) was determined at 7 and 14 DAP and recorded in Table 2.
# The same procedure as Test example 2 was conducted, except that cotton seeds which express Bacillus thuringiensis endotoxins and tolerant against glyphosate, were used in place of corn seeds. Disease incited by Pythium ultimum is reduced of the […]. The transgenic cotton source provided higher field stand establishment of seedlings when compared to the non-transgenic cotton. (Table 3).
# [2] = tested on: Pythium spp.; test: Seed treatment, emergence of corn under field conditions; conditions: for Ratio of sound non-transgenic seeds: non-transgenic corn seeds; for Ratio of sound transgenic seeds: transgenic corn seeds (glyphosate tolerance, rootworm resistance)
# Procedure: as §1
# [3] = tested on: Pythium disease; test: Seed treatment, emergence of corn seedlings in Pythium-infested soil (tray test); conditions: 14 days 10° C. then 11 days 18° C.; for Ratio of sound non-transgenic seeds: non-transgenic corn seeds; for Ratio of sound transgenic seeds: transgenic corn seeds (glyphosate tolerance, rootworm resistance)
# Procedure: Ethaboxam, formulated in a flowable concentrate for seed treatment use, was added to water so that the total slurry applied to a specified amount of seed would deliver a designated concentration of ethaboxam per 100 KG seed. The prepared slurry was applied to non-transgenic corn seeds and to transgenic corn seeds having both glyphosate tolerance and rootworm resistance. In a tray, Kimpack (absorbent cellulose wadding, trademark of Kimberly-Clark) was placed and wetted. Each of the corn seed types of each treatment rate was placed on the Kimpack and covered with soil, which is a 1:1 mixture of Pythium-infested field soil and sand. After keeping the soil saturated for 14 days at 10° C., the trays were transferred to 18° C. for 11 days.
smiles,measurement,setting,value
"CCNc1nc(CC)c(C(=O)NC(C#N)c2cccs2)s1 (centres unmarked) [ethaboxam, N-(cyano-2-thienylmethyl)-4-ethyl-2-(ethylamino)-5-thiazolecarboxamide]",Ratio of sound non-transgenic seeds,[1]; ethaboxam 0.05 gai/100 kg seed,1.75%
same,Ratio of sound non-transgenic seeds,[1]; ethaboxam 0.1 gai/100 kg seed,6.25%
same,Ratio of sound non-transgenic seeds,[1]; ethaboxam 0.5 gai/100 kg seed,10.25%
same,Ratio of sound non-transgenic seeds,[1]; ethaboxam 1.0 gai/100 kg seed,7%
same,Ratio of sound non-transgenic seeds,[1]; ethaboxam 5 gai/100 kg seed,9.5%
same,Ratio of sound non-transgenic seeds,[1]; ethaboxam 10 gai/100 kg seed,6.5%
same,Ratio of sound transgenic seeds,[1]; ethaboxam 0.05 gai/100 kg seed,7.5%
same,Ratio of sound transgenic seeds,[1]; ethaboxam 0.1 gai/100 kg seed,6.25%
same,Ratio of sound transgenic seeds,[1]; ethaboxam 0.5 gai/100 kg seed,6%
same,Ratio of sound transgenic seeds,[1]; ethaboxam 1.0 gai/100 kg seed,14.25%
same,Ratio of sound transgenic seeds,[1]; ethaboxam 5 gai/100 kg seed,8.5%
same,Ratio of sound transgenic seeds,[1]; ethaboxam 10 gai/100 kg seed,17.75%
same,Ratio of sound non-transgenic seeds,[2]; ethaboxam 0.05 gai/100 kg seed,74.5%
same,Ratio of sound non-transgenic seeds,[2]; ethaboxam 0.1 gai/100 kg seed,78.25%
same,Ratio of sound non-transgenic seeds,[2]; ethaboxam 0.5 gai/100 kg seed,76.25%
same,Ratio of sound non-transgenic seeds,[2]; ethaboxam 1.0 gai/100 kg seed,77.75%
same,Ratio of sound non-transgenic seeds,[2]; ethaboxam 5 gai/100 kg seed,81%
same,Ratio of sound non-transgenic seeds,[2]; ethaboxam 10 gai/100 kg seed,76.25%
same,Ratio of sound transgenic seeds,[2]; ethaboxam 0.05 gai/100 kg seed,86.25%
same,Ratio of sound transgenic seeds,[2]; ethaboxam 0.1 gai/100 kg seed,85%
same,Ratio of sound transgenic seeds,[2]; ethaboxam 0.5 gai/100 kg seed,89.25%
same,Ratio of sound transgenic seeds,[2]; ethaboxam 1.0 gai/100 kg seed,87.75%
same,Ratio of sound transgenic seeds,[2]; ethaboxam 5 gai/100 kg seed,86%
same,Ratio of sound transgenic seeds,[2]; ethaboxam 10 gai/100 kg seed,88.5%
same,Ratio of sound non-transgenic seeds,[3]; ethaboxam 0.05 gai/100 kg seed,39%
same,Ratio of sound non-transgenic seeds,[3]; ethaboxam 0.1 gai/100 kg seed,41%
same,Ratio of sound non-transgenic seeds,[3]; ethaboxam 0.5 gai/100 kg seed,47%
same,Ratio of sound non-transgenic seeds,[3]; ethaboxam 1.0 gai/100 kg seed,59%
same,Ratio of sound transgenic seeds,[3]; ethaboxam 0.05 gai/100 kg seed,57%
same,Ratio of sound transgenic seeds,[3]; ethaboxam 0.1 gai/100 kg seed,59%
same,Ratio of sound transgenic seeds,[3]; ethaboxam 0.5 gai/100 kg seed,65%
same,Ratio of sound transgenic seeds,[3]; ethaboxam 1.0 gai/100 kg seed,67%
